The results in this text go back to patent US12415785B2, “Compound modulators of sting” (CTXT PTY LTD, priority 2019, dated 2025).

pEC50: −log10 of the molar value. Where only a bound is given, the exact number is not on record here.

In one assay the target is human STING (WT) (Homo sapiens (Human), UniProt Q86WV6, H232R). The assay is described as follows: Differential scanning fluorimetry (DSF), huSTING (WT). The format is binding. The note with it: 2 μM protein, compound 100 μM, Tm with ligand minus Tm of protein alone (1% DMSO); for ΔTm at 100 µM: read-out: DSF huSTING (WT) ΔTm (° C.). As to the method: (§1) Biophysical experiments were performed with three different recombinant human STING protein variants designated according to allelic nomenclature of Yi et al., (2013). […] These were ligated into a modified pET43a E. coli expression vector designed to encode N-terminal His tag followed by tobacco etch virus protease (TEV) cleavage site and a STING gene sequence. The resulting protein sequences for the three allelic variants are listed below: […] Cultures were then cooled to 16° C. and protein expression induced by the addition of isopropyl β-D-1-thiogalactopyranoside to a final concentration of 0.5 mM and the cultures shaken overnight for further 16 hours. Following expression, cell cultures were centrifuged at 5000×g for 20 min and cell pellet stored frozen at −70° C. Protein purification was initiated by thawing the cell pellet in Lysis buffer (25 mM Tris-HCl pH 8.0, 300 mM NaCl, 5 mM DTT, 2 mM MgCl2, 10 mM imidazole, 0.5 mg/ml lysozyme, benzonase endonuclease [EMD Millipore], 1 mM PMSF, complete protease inhibitor tablets EDTA-free [Roche]) using a ratio of 7 ml of buffer per 1 g of cells. Cells were further lysed by 3 passes through an ice cooled Avestin C5 cell crusher and then centrifuged at 48,000×g at 4° C. […] The IMAC column was then sequentially washed with IMAC Wash buffer 1 and IMAC Wash buffer 2 (25 mM Tris-HCl pH 8.0, 300 mM NaCl, 5 mM DTT, 20 mM Imidazole) and bound His-TEV-hSTING protein eluted with IMAC Elution buffer (25 mM Tris-HCl pH 8.0, 300 mM NaCl, 5 mM DTT, 250 mM Imidazole). […] Differential scanning fluorimetry (DSF) is a rapid screening method for identifying low-molecular-weight ligands that bind and, in doing so, stabilize (or sometimes destabilize) purified proteins (Niesen 2007). DSF monitors thermal unfolding of protein in the presence of a fluorescent dye and is typically performed using a real-time PCR instrument. The temperature at which a protein unfolds is measured by an increase in the fluorescence of a dye with affinity for hydrophobic parts of the protein that are gradually being exposed during unfolding. The fluorescence of the dye is quenched in aqueous environments, but when the dye associates with hydrophobic sites on unfolded protein, its fluorescence increases. The fluorescence intensity is plotted as a function of the temperature, generating a sigmoidal curve that can be described by a two-state transition. The inflection point of the transition curve (Tm) is calculated using simple equations such as that of Boltzmann. Thermal stability of STING protein (with and without bound ligand) was measured using previously described methodology (Seabrook & Newman, 2013), with samples tested in triplicate using 96-well PCR microplate (AB Gene, ABGAB-0600/W). […] Sealed plates were placed into Bio-Rad CFX96/C1000 thermocycler and FRET scanning mode (λ^excitation of 490 nm and reads at a λ^emission of 570 nm). Melting curves were recorded from 20° C. to 100° C. in 0.5° C. increments every 30 seconds with a read at each increment. Data were analysed using “Meltdown analysis” protocol described by Rosa (2015).
Sequence of human STING (WT) (Q86WV6 other isoform, or with tags, fused parts or gaps, stated change not applied): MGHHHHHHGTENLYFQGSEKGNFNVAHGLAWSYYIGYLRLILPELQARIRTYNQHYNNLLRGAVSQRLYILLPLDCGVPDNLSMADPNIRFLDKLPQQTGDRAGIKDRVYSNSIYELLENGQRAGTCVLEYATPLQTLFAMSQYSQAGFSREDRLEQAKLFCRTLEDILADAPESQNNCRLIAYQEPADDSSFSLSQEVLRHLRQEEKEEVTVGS
(Differential scanning fluorimetry follows unfolding on heating by fluorescence.)

The next assay concerns the target human STING (HAQ) (Homo sapiens, UniProt Q86WV6, G230A/H232R/R293Q). The assay is described as follows: Differential scanning fluorimetry (DSF), huSTING (HAQ). It counts as binding. The note with it: 2 μM protein, compound 100 μM; Tm with ligand minus Tm of protein alone (1% DMSO); read-out: DSF huSTING (HAQ) ΔTm (° C.). As for the experimental part:
as §1

Assay [1] concerns the target WT human STING isoform (THP-1-Dual KI-hSTING-R232 cells) (Homo sapiens (Human), UniProt Q86WV6, H232R). The assay is described as follows: THP-1-Dual KI-hSTING-R232 reporter cell line assay. It counts as cell-based. The note with it: 24 h incubation, QUANTI-Luc luminescence. As for the experimental part:
(§2) THP-1 STING Lucia ISG cells (InvivoGen #thpI-isg) were cultured in RPMI-1640 containing 2 mM L-glutamine, 25 mM HEPES, 100 μg/mL Normocin (InvivoGen) and 10% heat-inactivated FBS. Cells were seeded at a density of 7×10^5 cells/mL, maintained at 37° C./5% CO2, and passaged every 3-4 days. Selection pressure was maintained by the addition of 100 μg/mL Zeocin every second passage.
(§3) Assay conditions: cells were harvested and resuspended at a concentration of 5×10^5 cells/mL in fresh growth media. Of this cell preparation 20 μL per well was dispensed into 384 well cell culture plates (Greiner, #781098X) and incubated at 37° C./5% CO2 for 2 hours. Concentration Response Curves (commonly 11 doses) were prepared by 2.5 fold serial dilution starting from 10 mM compound stock solution in DMSO. Compound dilutions were transferred into the cell culture plates using a pintool (0.1 μL transfer), control wells were matched for DMSO. Positive control wells received ML RR—S2 CDA (Med Chem Express HY12885B) in 5 μL of media to a final concentration of 40 μM. All other wells received additional 5 μL of media only to equalise volume. The plates were incubated for 24 h at 37° C./5% CO2.
(§4) For the detection step, QUANTI-Luc (InvivoGen #rep-qlc1) was prepared according to manufacturer's instruction and 10 μL were added per well to the culture plates. Plates were shaken for ten seconds on an orbital shaker and left in the dark at room temperature for two minutes, before luminescence was read on a Perkin Elmer Envision plate reader.
(§5) Data analysis: Luminescence raw data was normalised % activity relative to the signal of the positive control wells and negative control wells which were not treated with compound. The following formula was used to calculate normalised % activity from raw signals: % activity=(sample−negative)/(positive−negative)
(§6) The THP-1 STING Lucia ISG cell EC50 provides an assessment of activity at the human HAQ isoform of STING. For assessing compound activity against the WT human STING isoform, an equivalent method was conducted where the cells used were THP-1-Dual KI-hSTING-R232 (InvivoGen #thpd-r232).

The target of assay [2] is human HAQ isoform of STING (THP-1 STING Lucia ISG cells) (Homo sapiens (Human), UniProt Q86WV6, G230A/H232R/R293Q/R71H). Description: THP-1 STING Lucia ISG reporter cell line assay. It counts as cell-based. The note with it: 24 h incubation, QUANTI-Luc luminescence. As for the experimental part:
as §2, §3, §4, §5, §6

Sequence of WT human STING isoform (THP-1-Dual KI-hSTING-R232 cells) (Q86WV6 whole entry H232R, canonical isoform): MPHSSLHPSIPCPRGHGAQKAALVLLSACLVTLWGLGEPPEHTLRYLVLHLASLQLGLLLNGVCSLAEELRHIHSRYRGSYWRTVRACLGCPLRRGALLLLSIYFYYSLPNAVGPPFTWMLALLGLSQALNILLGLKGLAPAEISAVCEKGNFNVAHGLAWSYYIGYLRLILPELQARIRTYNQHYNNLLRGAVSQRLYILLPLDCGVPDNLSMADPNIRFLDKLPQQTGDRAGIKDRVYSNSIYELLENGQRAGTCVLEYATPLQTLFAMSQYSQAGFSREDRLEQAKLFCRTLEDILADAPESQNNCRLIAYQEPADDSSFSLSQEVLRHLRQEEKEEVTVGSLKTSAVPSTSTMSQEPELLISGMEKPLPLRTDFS
Sequence of human HAQ isoform of STING (THP-1 STING Lucia ISG cells) (Q86WV6 whole entry R71H/G230A/H232R/R293Q, canonical isoform): as the sequence (Q86WV6 whole entry H232R, canonical isoform) above, with R71H, G230A, R293Q counted along it
Sequence of human STING (HAQ) (Q86WV6 whole entry G230A/H232R/R293Q, looked up): as the sequence (Q86WV6 whole entry H232R, canonical isoform) above, with G230A, R293Q counted along it

On to `COc1c(C(N)=O)ccc2c1nc(-c1ccc(Cl)cc1-c1cn[nH]n1)n2CCn1c(-c2ccc(Cl)cc2-c2cn[nH]n2)nc2c(OC)c(C(N)=O)ccc21` [Example 24, 1,1′-(Ethane-1,2-diyl)bis(2-(4-chloro-2-(2H-1,2,3-triazol-4-yl)phenyl)-4-methoxy-1H-benzo[d]imidazole-5-carboxamide)], for which the thermal shift (ΔTm) at 100 µM on human STING (WT) is -3.16 °C; on human STING (HAQ), -0.08 °C. Further, the pEC50 is 5.38 in assay [1] and 5.57 in assay [2].

As for `COc1c(C(N)=O)ccc2c1nc(-c1cc(C)ccc1C(=O)O)n2CCn1c(-c2cc(C)ccc2C(=O)O)nc2c(OC)c(C(N)=O)ccc21` [Example 26, 2,2′-(Ethane-1,2-diylbis(5-carbamoyl-4-methoxy-1H-benzo[d]imidazole-1,2-diyl))bis(4-methylbenzoic acid)], the ΔTm at 100 µM on human STING (WT) came to 1.13 °C; at human STING (HAQ) it was 6.33 °C. The pEC50 is 5.49 in assay [1] and 5.47 in assay [2].

For `NC(=O)c1ccc2c(c1)nc(-c1ccccc1C(=O)O)n2CCn1c(-c2ccccc2C(=O)O)nc2cc(C(N)=O)ccc21` [Example 2, 2,2′-(Ethane-1,2-diylbis(5-carbamoyl-1H-benzo[d]imidazole-1,2-diyl))dibenzoic acid], the ΔTm at 100 µM is -6.94 °C at human STING (WT) and -3.48 °C at human STING (HAQ). Also, the pEC50 in assay [1] and in assay [2] was < 4.40 throughout.

For `COc1c(C(N)=O)ccc2c1nc(-c1ccccc1-c1nn[nH]n1)n2CCn1c(-c2ccccc2-c2nn[nH]n2)nc2c(OC)c(C(N)=O)ccc21` [Example 6, 1,1′-(Ethane-1,2-diyl)bis(2-(2-(2H-tetrazol-5-yl)phenyl)-4-methoxy-1H-benzo[d]imidazole-5-carboxamide)], the ΔTm at 100 µM on human STING (WT) is 0.94 °C; at human STING (HAQ), 5.44 °C. The pEC50 in assay [1] is 6.03; in assay [2] it was 6.04.

As to `COc1c(C(N)=O)ccc2c1nc(-c1ccc(C(F)(F)F)cc1C(=O)O)n2CCn1c(-c2ccc(C(F)(F)F)cc2C(=O)O)nc2c(OC)c(C(N)=O)ccc21` [Example 38, 6,6′-(Ethane-1,2-diylbis(5-carbamoyl-4-methoxy-1H-benzo[d]imidazole-1,2-diyl))bis(3-(trifluoromethyl)benzoic acid)], the results for the ΔTm at 100 µM on human STING (WT) and on human STING (HAQ) were 0.38 °C and 3.68 °C, respectively. For the same compound, the pEC50 in assay [1] and in assay [2] was < 4.40 each time.

On to `COC(=O)c1c(Br)cccc1-c1nc2c(OC)c(C(N)=O)ccc2n1CCn1c(-c2cccc(Br)c2C(=O)OC)nc2c(OC)c(C(N)=O)ccc21` [Example 21, Dimethyl 6,6′-(ethane-1,2-diylbis(5-carbamoyl-4-methoxy-1H-benzo[d]imidazole-1,2-diyl))bis(2-bromobenzoate)], for which the values for the ΔTm at 100 µM on human STING (WT) and on human STING (HAQ) were 2.33 °C and 5.83 °C, respectively. In addition, the pEC50 is 5.79 in assay [1] and 5.83 in assay [2].

With `NC(=O)c1ccc2c(c1)nc(-c1c(Br)cccc1C(=O)O)n2CCn1c(-c2c(Br)cccc2C(=O)O)nc2cc(C(N)=O)ccc21` (single isomer, unassigned) [Example 29.1, 2,2′-(Ethane-1,2-diylbis(5-carbamoyl-1H-benzo[d]imidazole-1,2-diyl))bis(3-bromobenzoic acid)], the “DSF huSTING (WT) ΔTm (° C.)” value on human STING (WT) is −0.07 °C. Besides, the pEC50 in assay [1] was 5.01; in assay [2], 4.74.

On to `COc1c(C(N)=O)ccc2c1nc(-c1ccc(Cl)cc1C(=O)O)n2CCn1c(-c2ccc(Cl)cc2C(=O)O)nc2c(OC)c(C(N)=O)ccc21` [Example 1, 6,6′-(Ethane-1,2-diylbis(5-carbamoyl-4-methoxy-1H-benzo[d]imidazole-1,2-diyl))bis(3-chlorobenzoic acid)], for which the ΔTm at 100 µM at human STING (WT) stood at 5.07 °C; at human STING (HAQ), 9.44 °C. For the same compound, the pEC50 in assay [1] is 6.05; in assay [2], 5.97.

For the compound `COc1c(C(N)=O)ccc2c1nc(-c1c(F)cc(Cl)cc1Br)n2CCn1c(-c2c(F)cc(Cl)cc2Br)nc2c(OC)c(C(N)=O)ccc21` [Example 45, 1,1′-(Ethane-1,2-diyl)bis(2-(2-bromo-4-chloro-6-fluorophenyl)-4-methoxy-1H-benzo[d]imidazole-5-carboxamide)], the values for the ΔTm at 100 µM at human STING (WT) and at human STING (HAQ) were -0.34 °C and 1.24 °C, respectively. Further, the pEC50 was 5.49 in assay [1] and 5.17 in assay [2].

On to `COc1c(C(N)=O)ccc2c1nc(-c1ccc(Cl)c(Cl)c1-c1nn[nH]n1)n2CCn1c(-c2ccc(Cl)c(Cl)c2-c2nn[nH]n2)nc2c(OC)c(C(N)=O)ccc21` [Example 37, 1,1′-(Ethane-1,2-diyl)bis(2-(3,4-dichloro-2-(2H-tetrazol-5-yl)phenyl)-4-methoxy-1H-benzo[d]imidazole-5-carboxamide)], for which the ΔTm at 100 µM at human STING (WT) was -0.24 °C; at human STING (HAQ), 2.8 °C. Further, the pEC50 in assay [1] and in assay [2] was < 4.40 throughout.

As to `COc1c(C(N)=O)cc(F)c2c1nc(-c1c(F)cc(F)cc1C(=O)O)n2CCn1c(-c2c(F)cc(F)cc2C(=O)O)nc2c(OC)c(C(N)=O)cc(F)c21` [Example 18, 2,2′-(Ethane-1,2-diylbis(5-carbamoyl-7-fluoro-4-methoxy-1H-benzo[d]imidazole-1,2-diyl))bis(3,5-difluorobenzoic acid)], the figures for the ΔTm at 100 µM at human STING (WT) and at human STING (HAQ) were 2.4 °C and 19.1 °C, respectively. The pEC50 in assay [1] is 6.25; in assay [2] it was 6.49.

Consider `COc1c(C(N)=O)ccc2c1nc(-c1cc(Cl)ccc1-c1nn[nH]n1)n2CCn1c(-c2cc(Cl)ccc2-c2nn[nH]n2)nc2c(OC)c(C(N)=O)ccc21` [Example 42, 1,1′-(Ethane-1,2-diyl)bis(2-(5-chloro-2-(2H-tetrazol-5-yl)phenyl)-4-methoxy-1H-benzo[d]imidazole-5-carboxamide)], for which the ΔTm at 100 µM on human STING (WT) was determined as 2.04 °C; at human STING (HAQ), 6.3 °C. Further, the negative logarithm of the EC50 (pEC50) is 5.36 in assay [1] and 5.49 in assay [2].

Broadly, the ΔTm is the change in melting temperature against a reference sample. As usually defined, the pEC50 is −log10 of the EC50, conventionally taken in molar units.
